Converted amounts (≈) assume the structure as drawn. Like-named read-outs stand apart in the source and are kept apart here.
Tests used:
[1] = molecular target: T1, human leukotriene B4 receptor (LTB4R) (Homo sapiens, UniProt Q15722); assay: Human LTB4 receptor cell-based assay (CHO mito-i-Photina, flash luminescence); details: antagonist mode
T1 construct: host or cells: CHO mito-i-Photina cells
Description: 3. Human LTB4 Receptor Cell-Based Assay
CHO mito-i-Photina® cells (Axxam SpA) stably expressing the human leukotriene B4 receptor (LTB4R) were used for monitoring activation of the target LTB4R, a GPCR (Gαq), by measuring the flash luminescence of Ca^2+ sensitive photoprotein as reporter system with FLIPR^TETRA screening instrumentation (Molecular Devices) upgraded with an ICCD Camera (MDC). For data quality check and data analysis a Genedata Screener 10.0.3 was used, and for curve fitting of reference agonist and antagonist GraphPad Prism Software.
The reference agonist LTB4 and antagonist U-75302 were purchased from reputable commercial vendors and prepared according to each ligand's specifications. All handling of ligands were done to ensure proper control throughout the experiments.
The steps of the implemented workflow and data analysis are mainly as follows:
mito-1-Photina cells are seeded (10000 c/w in 384 MTP; in complete medium 25 μL/well) for 24 hours, removed from the incubator, equilibrated at room temperature for 1 h, freed from the growth medium, loaded with 30 μL/well of Tyrode's buffer containing 10 μM coelenterazine, and incubated for 3 hours at rt.
All compounds were tested at 10 μM with triplicate data points.
After incubation, the volume in all the wells is flattened to 20 μL by aspiration with CyBi®-Vario pipettor. The First Injection (10 μL of test compounds or reference antagonist U-75302 in Tyrode's buffer+DMSO 0.5%) is performed by the FLIPR^TETRA and the kinetic response is monitored over a period of 120 seconds. Incubation at rt for 10 min. is followed by the Second Injection (15 μL of LTB4 at EC80 in Tyrode's buffer) and monitoring of the kinetic response over a period of 120 seconds.
The possible kinetic response is divided into two distinct phases: Monitoring the kinetic response after the First Injection is indicated as Compound Addition (CA) and measures the agonistic activity of compounds; monitoring the kinetic response after the Second Injection is indicated as Target Activation (TA) and measures the antagonistic activity of a compound.
The activity determination (IC50 determination) experiment is performed using LTB4 as agonist (100 nM corresponding to EC80). Selected compound are tested in 8 doses intraplate dose response with quadruplicate data points.

[2] = system: S. pneumoniae DSM 20566 11A11, 3313A6, 704CG4B21, 82BERG72; assay: Antimicrobial assay, broth microdilution MIC, S. pneumoniae strains; type: cell-based; details: Streptococcus pneumoniae, DSM20566; strain DSM 20566 (Table 32.7); read-out: MIC S. pneumoniae DSM 20566
Protocol: (§1) The antimicrobial activities of the compounds were determined in 96-well plates (Greiner, polystyrene) by the standard NCCLS broth microdilution method (National Committee for Clinical Laboratory Standards 1993. Methods for dilution antimicrobial susceptibility tests for bacteria that grow aerobically, 3rd ed. Approved standard M7-A6. National Committee for Clinical laboratory standards, Wayne, Pa.) with slight modifications. Inocula of the microorganisms were diluted into Mueller-Hinton II (MH, cation adjusted) broth+0.002% P-80 and compared with a 0.5 McFarland standard to give appr. 10^6 colony forming units (CFU)/mL. Aliquots (50 μl) of inoculate were added to 50 μl of MH broth+0.002% P-80 containing the compounds in serial two-fold dilutions. The following microorganisms were used to determine antibiotic selectivity of the compounds: S. pneumoniae DSM 20566 11A11, 3313A6, 704CG4B21, 82BERG72; S. aureus ATCC 29213, ATCC 25923, DSM 11729, DSM 46320, S. aureus 39. Antimicrobial activities of the compounds were expressed as the minimal inhibitory concentration (MIC) in μg/mL at which no visible growth was observed after 18-20 hours of incubation at 36° C.

[3] = system: S. aureus ATCC 29213, ATCC 25923, DSM 11729, DSM 46320, S. aureus 39; assay: Antimicrobial assay, broth microdilution MIC, S. aureus strains; type: cell-based; details: Staphylococcus aureus
Protocol: as §1

[4] = molecular target: T2, Oxytocin receptor (OT receptor) (Homo sapiens, UniProt P30559); assay: Ca2+ flux (FLIPR) assay, OT receptor, agonist/antagonist mode; type: cell-based; details: antagonist mode
T2 construct: expressed in transfected cells; host or cells: Ca2+ optimized hematopoietic cell lines (rat)
T2 sequence (P30559 1-389): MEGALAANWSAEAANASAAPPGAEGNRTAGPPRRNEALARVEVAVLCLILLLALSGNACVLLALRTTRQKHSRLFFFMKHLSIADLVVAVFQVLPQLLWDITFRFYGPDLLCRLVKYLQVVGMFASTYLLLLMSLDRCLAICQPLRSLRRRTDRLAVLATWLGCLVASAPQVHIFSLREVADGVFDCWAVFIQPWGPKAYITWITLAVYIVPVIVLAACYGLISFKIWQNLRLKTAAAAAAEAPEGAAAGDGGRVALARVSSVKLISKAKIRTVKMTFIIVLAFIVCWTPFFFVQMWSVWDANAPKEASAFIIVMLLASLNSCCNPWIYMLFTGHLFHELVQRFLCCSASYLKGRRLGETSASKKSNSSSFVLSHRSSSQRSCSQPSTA
Protocol: Biological and Pharmacological Methods 1. Ca^2+ Flux Assays for the GPCRs Oxytocin Receptor (OT Receptor), Thyrotropin-Releasing Hormone Receptor (TRH Receptor) and Bombesin Receptor Subtype 3 (BB3 Receptor)
Assays were performed on a FLIPR^TETRA fluorometric imaging plate reader (Molecular Devices) with ScreenWorks Version 2 (Molecular Devices) as device operating and data analysis software.
Dose dependent agonist and antagonist activities were determined. Percentage activation and percentage inhibition values were determined.
Percentage activation was determined upon initial addition of the sample compounds followed by 10 minutes' incubation at 25° C. Following compound incubation, reference agonists were added at EC80 to determine percentage inhibition.
Reference agonists were purchased from reputable commercial vendors and prepared according to each ligand's specifications. All handling of ligands were done to ensure proper control throughout the experiments.
Example compounds were weighed on a Microbalance (Mettler MX5) and dissolved in 100% DMSO to a final concentration of 2.5 mM and subsequently diluted into the assay buffer.
The assay buffer was a supplemented HBSS (Hank's Balanced Salt Solution). HBSS was supplemented with 20 mM HEPES (4-(2-hydroxyethyl)-piperazin-1-ethansulfonic acid) and 2.5 mM Probenecid (Sigma P8761).
GPCR assays were performed using Ca^2+ optimized hematopoietic cell lines (rat) with cultures never exceeding 90% confluency. Cells were harvested and seeded (from cultures at less than 90% confluency) at 50000 cells/well for a 96-well plate (12500 cells/well for 384). After seeding, the assay plates were incubated for 45 minutes at room temperature. After room temperature incubation, the assay plates were incubated at 37° C. 5% CO2 for 24 hours prior to assaying.
All GPCR assays were performed using Fluo-8 Ca^2+ dye.
Ca^2+ dye was prepared at 1× dye concentration in GPCR assay buffer. After 24 hours of incubation, cells were washed with GPCR assay buffer, and then Ca^2+-dye (100 μL/well) was added.
The plates were incubated for 90 minutes at 30° C. 5% CO2 prior to FLIPR assay.
Compound plates were prepared to add 50 μL/well during the agonist assay mode. During the FLIPR assay, 50 μL/well from the compound plate was diluted 3-fold into the existing 100 μL/well from the dye loading step. Therefore all compounds were prepared as 3× the final concentration desired in the assay.
After completion of the first single addition assay run, assay plate was removed from the FLIPR Tetra and placed at 25° C. for 7 minutes before antagonist assay.
Using the EC80 values determined during the agonist assay, all pre-incubated sample compound and reference antagonist (if applicable) wells were stimulated at the EC80 of the reference agonist. As reference ligands for these assays their obvious natural ligands oxytocin (OT), thyrotropin-releasing hormone (TRH) and bombesin (6-14) [BN(6-14)] were used.
After the addition of the reference agonist fluorescence was monitored for 180 sec using FLIPR Tetra.
From the FLIPR data, with negative control correction enabled, the maximum statistic for each well was exported and percentage activation relative to Emax control was calculated.

T1 sequence (Q15722 whole entry): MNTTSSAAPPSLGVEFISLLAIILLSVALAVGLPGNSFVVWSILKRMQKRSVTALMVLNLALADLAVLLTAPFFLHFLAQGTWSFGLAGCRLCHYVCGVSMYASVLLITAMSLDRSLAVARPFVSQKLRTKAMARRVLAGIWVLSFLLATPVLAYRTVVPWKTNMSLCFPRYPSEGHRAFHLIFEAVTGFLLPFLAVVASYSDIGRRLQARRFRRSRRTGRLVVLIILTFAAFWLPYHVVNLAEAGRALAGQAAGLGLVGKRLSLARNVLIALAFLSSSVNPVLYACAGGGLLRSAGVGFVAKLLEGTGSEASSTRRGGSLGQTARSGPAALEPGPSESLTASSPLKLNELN

SMILES	IC50 [1] [µM]	inhibition at 10 µM [1] [%]	IC50 [4] [µM]	inhibition at 10 µM ([4]; 10 μM) [%]	also measured
O=C(N[C@@H]1CCNC(=O)c2ccccc2-c2cccc(c2)OC[C@@H]2C[C@H](NC(=O)Oc3ccccc3)CN2C1=O)OCc1ccccc1 [Ex. 14]	39.4	46	–	–	–
CN1CCNC(=O)c2cncc(c2)-c2cccc(c2)OC[C@@H]2C[C@@H](NC(=O)OC(C)(C)C)CN2C(=O)C1 [Ex. 94, tert-butyl N-[(9S,11R)-16-methyl-14,20-dioxo-7-oxa-13,16,19,23-tetraazatetracyclo[19.3.1.1^2,6.0^9,13]hexacosa-1(25),2(26),3,5,21,23-hexaen-11-yl]carbamate]	–	–	3	58	MIC [2]: > 16 µg/mL; MIC ([3]; strain ATCC 25923, read-out: MIC S. aureus ATCC 25923): 8 µg/mL (≈ 15.7 µM); MIC ([3]; strain ATCC 29213, read-out: MIC S. aureus ATCC 29213): 4 µg/mL (≈ 7.85 µM); MIC ([3]; strain DSM 11729, read-out: MIC S. aureus DSM 11729): 4 µg/mL (≈ 7.85 µM); MIC ([3]; strain DSM 46320, read-out: MIC S. aureus DSM 46320): 8 µg/mL (≈ 15.7 µM); MIC ([3]; strain S. aureus 39, read-out: MIC S. aureus 39): 8 µg/mL (≈ 15.7 µM)
CN1CCNC(=O)c2cncc(c2)-c2cccc(c2)OC[C@@H]2C[C@@H](NC(=O)Cc3ccc4ccccc4c3)CN2C(=O)C1 [Ex. 96, N-[(9S,11R)-16-methyl-14,20-dioxo-7-oxa-13,16,19,23-tetraazatetracyclo[19.3.1.1^2,6.0^9,13]hexacosa-1(25),2(26),3,5,21,23-hexaen-11-yl]-2-(2-naphthyl) acetamide]	–	–	1.2	60	–
CC(=O)N[C@@H]1C[C@H]2COc3cccc(c3)-c3cncc(c3)C(=O)NCCN(Cc3cccc(F)c3)CC(=O)N2C1 [Ex. 100, N-[(9S,11R)-16-(3-fluorobenzyl)-14,20-dioxo-7-oxa-13,16,19,23-tetraazatetracyclo[19.3.1.1^2,6.0^9,13]hexacosa-1(25),2(26),3,5,21,23-hexaen-11-yl]acetamide]	–	–	4.6	57	–

Continued, in another order:

IC50 [1] [µM]	inhibition at 10 µM [1] [%]	IC50 [4] [µM]	inhibition at 10 µM ([4]; 10 μM) [%]	SMILES	also measured
–	–	2.6	–	CN1CCNC(=O)c2cncc(c2)-c2cccc(c2)OC[C@@H]2C[C@@H](NC(=O)Cc3cccc4ccccc34)CN2C(=O)C1 [Ex. 101, N-[(9S,11R)-16-methyl-14,20-dioxo-7-oxa-13,16,19,23-tetraazatetracyclo[19.3.1.1^2,6.0^9,13]hexacosa-1(25),2(26),3,5,21,23-hexaen-11-yl]-2-(1-naphthyl) acetamide]	Antagonist activity % Inhibition at 10 μM ([4]; 10 μM): 69%
–	–	6.9	77	CN1CCNC(=O)c2cncc(c2)-c2cccc(c2)OC[C@@H]2C[C@@H](NS(=O)(=O)c3ccccc3)CN2C(=O)C1 [Ex. 103, N-[(9S,11R)-16-methyl-14,20-dioxo-7-oxa-13,16,19,23-tetraazatetracyclo[19.3.1.1^2,6.0^9,13]hexacosa-1(25),2(26),3,5,21,23-hexaen-11-yl]benzenesulfonamide]	–
15.4	49	–	–	C[C@@H]1COc2cccc(c2)-c2ccccc2SCCCC[C@H](N)C(=O)N1 [Ex. 116, (13S,16R)-13-amino-16-methyl-18-oxa-8-thia-15-azatricyclo[17.3.1.0^2,7]tricosa-1(23),2,4,6,19,21-hexaen-14-one]	–
14.2	47	–	–	C[C@@H]1COc2cccc(c2)-c2ccccc2SCCCC[C@H](NC(=O)CN2CCCC2)C(=O)N1 [Ex. 119, N-[(13S,16R)-16-methyl-14-oxo-18-oxa-8-thia-15-azatricyclo[17.3.1.0^2,7]tricosa-1(23),2,4,6,19,21-hexaen-13-yl]-2-(1-pyrrolidinyl)acetamide]	–
40.9	41	–	–	C[C@@H]1COc2ccccc2-c2cncc(c2)SCCCC[C@H](N)C(=O)N1 [Ex. 144, (10R,13S)-13-amino-10-methyl-8-oxa-18-thia-11,21-diazatricyclo[17.3.1.0^2,7]tricosa-1(23),2,4,6,19,21-hexaen-12-one]	–
